Patent US20230248850A1, “GOLD MOLECULAR CLUSTERS AND METHODS OF USING SAME FOR NEAR-INFRARED IMAGING” (The Board of Trustees of the Leland Stanford Junior …, priority 2022, published 2023)
“Also recorded” adds a separate entry of the source.

Assays:
[1] = system: mice bearing syngeneic 4T1 murine breast tumors; assay: NIR-II lymph node imaging after intra-/peri-tumoral injection, 4T1 tumors; type: in vivo, mouse
Description: For lymph node imaging, intra-tumor/peri-tumor administration (i.t.) of Au-PC clusters to mice (5-7 weeks old female Balb/c, n=3 in each group) bearing syngeneic 4T1 murine breast tumors and CT26 colon tumors inoculated on hindlimbs was performed. Several doses of Au-PC probes, including 4× (˜1.2 mg, tumors on both hindlimbs), 1× (˜300 μg, tumor on the right hindlimb) and ⅓× (˜100 μg, tumor on the right hindlimb) were administered (FIG. 3A, FIGS. 16 and 17). The draining inguinal lymph nodes (iLN) started to show NIR-II emission of Au-PC within ˜1 min p.i. and reached high brightness within ˜3 min p.i. (FIG. 3A, FIG. 17 for 4T1; FIG. 12A for CT26 tumor). The LN signal persisted for over 1 h in the draining iLNs (FIG. 3A) after reaching peak intensity at ˜30 min p.i., with a LN/background signal ratio ˜5-10 (FIG. 3D, FIG. 12D). […] The signal completely disappeared after […] p.i. of the Au-PC probe. The Au-PC clusters afforded rapid and effective imaging/detection of the primary tier draining LNs with much weaker signals in higher tier nodes.
3-9-week-old BALB/c female mice (weight: 15-20 g) were purchased from Charles River. The mice were housed on a 12-hour light/12-hour dark at ambient temperature =20-25° C. and humidity=50-65% in Stanford University's Veterinary Service Center. The bedding, nesting material, food and water were provided by the Stanford VSC facility. Prior to each experiment, the mice were shaved using hair-removing lotion (Nair, Softening Baby Oil). For in vivo imaging, the mice were anaesthetized by 2.5% isoflurane and oxygen as a carrying gas at a flow rate of 2 L/min. Per animal care protocols, the mice were carefully monitored during the imaging process and postrecovery period. The experimental groups consisted of n=3 mice. […]
The animal experiments and imaging in the NIR-II window were conducted in a two-dimensional, water-cooled 640×512 InGaAs array (Ninox 640, Raptor Photonics). […] NIR-II fluorescence images were recorded at 3 min, 10 min, 30 min, 1 h, 3 h, 6 h, 24 h, 48 h p.i.

Balb/c mice [2] = assay: In vivo NIR-II fluorescence imaging after intravenous injection; design: species or system mouse; settings: i.v. injection, up to 24 h p.i.
Description: In vivo, the Au-GSH and Au-PC clusters dissolved in PBS were first intravenously (i.v.) administered to mice (5-7 weeks old female Balb/c, n=3 in each group) through tail-vein injection, imaged in the >1100 nm NIR-II window and compared side by side with the clinically approved ICG dye. The bladder NIR-II signals in mice rapidly lit up, at ˜3 min postinjection (p.i) (FIG. 2A, 2B ventral view), as a consequence of kidney drainage for fast renal clearance (dorsal/lateral view images in FIGS. 13A and 14A, respectively).
(§1) The animal experiments and imaging in the NIR-II window were conducted in a two-dimensional, water-cooled 640×512 InGaAs array (Ninox 640, Raptor Photonics). The clusters were excited by an 808-nm continuous-wave diode laser at a power density of 70 mW/cm^2. 1100 nm long-pass filter was used in all the imaging experiments unless stated otherwise. The fluorescent probes were administered through tail vein (intravenous, i.v.), tail base (subcutaneous, s.c.) and (peri)intratumoral (i.t.). NIR-II fluorescence images were recorded at 3 min, 10 min, 30 min, 1 h, 3 h, 6 h, 24 h, 48 h p.i.

[3] = Excretion by ICP-MS after intra-tumoral injection; type: in vivo, mouse; settings: i.t. injection
Description: The biodistribution of probes was analyzed 10 min, 30 min, 24 h or 48 h postadministration. The urine, feces and major organs including the liver, spleen, heart, lungs, and kidneys were collected and digested in nitric acid (68%) for 12 h. Afterwards, the solutions were heated to 150° C. in the digestion solution (nitric acid:hydrogen peroxide=4:1) until transparent and colorless solution was obtained. The concentration of gold in each sample was measured by ICP-MS (Thermo Scientific ICAP 6300 Duo View Spectrometer).

Balb/c mice [4] = assay: NIR-II lymph node imaging after subcutaneous injection at tail base; type: in vivo, mouse; settings: s.c. tail base
Description: Investigated next was LN draining post subcutaneous (s.c.) injection of the three probes at the mouse tail base (FIG. 5) (5-7 weeks old female Balb/c, n=3 in each group). The Au-PC clusters within 3 min p.i. migrated to the lymphatic vessels connecting the injection site to the draining iLN (FIG. 5A and FIG. 23). Strong signals in the iLN were seen up to 1 h and decreased by ˜40% 2 h p.i. (FIG. 5D). […] In contrast, upon ICG administration (FIG. 5C), the fluorescent signal in iLN appeared 3 min p.i. but with an intensity much lower compared to that of Au-PC probe at the same time postinjection (FIG. 5F). After 2-3 h p.i. (or even later) ICG signal in the iLN reached peak intensity and persisted. […] The retention of ICG at the injection site persisted over an extended period of time (FIG. 5F) much longer than Au-PC. The Au-PC molecular clusters were also unique with little retention at subcutaneous injection sites among various nanomaterials (with well-coated hydrophilic layers such as PEG) including quantum dots (QDs), carbon nanotubes (CNTs) and organic NIR II dyes^67,68. The trapping of NIR-II probes at the injection site and staining it for weeks is undesirable due to potential long-term side effects.
as §1

serum proteins (FBS) = assay: in vitro; type: in vitro ADME; settings: bovine
Description: Evaluated next were the serum protein binding capabilities of Au-GSH cluster and Au-PC conjugate with FBS and compared to that of ICG. Briefly, the clusters and ICG were incubated with FBS for 1 h at 37° C. (FIG. 12). Afterwards, the solutions were filtered using Amicon 50 kDa centrifuge filters (FIGS. 12A and 12B). Au clusters bound to serum proteins will not pass filter while free unbound clusters will be lost to the filtrate. The optical density (OD) of filtrate (in case of Au-GSH and Au-PC) and retentate (in case of ICG) at 808 nm were measured and the corresponding serum protein binding efficiencies were calculated (FIG. 12C). The schematics of the experiments, figures, and absorbance values of Au-GSH+FBS and Au-PC+FBS filtrates as well as ICG+FBS retentate can be found in FIG. 12. The serum protein binding efficiencies for Au-GSH cluster, Au-PC conjugate and ICG were calculated to be 2.7%, 1.74% and 94.5%, respectively.

time of peak lymph node intensity ([1]; i.t. injection into 4T1 tumor): 2 to 3 h
excretion route [3]: liver excretory system
time fluorescent signal in iLN appeared (Balb/c mice [4]): 3 min
time of iLN signal peak (Balb/c mice [4]): 2 to 3 h
fraction unbound at 1 h (serum proteins (FBS)): 0.055
Compound: CC1(C)C(/C=C/C=C/C=C/C=C2\N(CCCCS(=O)(=O)O)c3ccc4ccccc4c3C2(C)C)=[N+](CCCCS(=O)(=O)[O-])c2ccc3ccccc3c21 [ICG, indocyanine green]
signal at tumor injection site 24 h p.i. ([1]; i.t. injection): significant signals were still detected at the tumor injection sites
LN/background (LN/B) signal ratio ([1]; i.t. injection, 4T1 tumors, at peak intensity): 4
NIR-II signal distribution and retention in organs (Balb/c mice [2]): strong NIR-II signals were observed in liver and intestine; also recorded: no significant ICG retention in major organs
signal retention at 24 h p.i. (Balb/c mice [4]): significant signal still remained in the lymph node, at the injection site and in the liver
